{"source": "patent US20050227961A1", "about": "“Compositions and methods for treatment of neuropathic pain, fibromyalgia and chronic fatigue syndrome” (Vela Pharmaceuticals, Inc., priority 2004, published 2005)", "test_system": "lesioned hindpaw of rats suffering from neuropathic pain", "assay": "Neuropathic pain, thermal stimulation model in the rat (Chung spinal nerve ligature), paw withdrawal latency", "settings": "for Paw Withdrawal Latent (seconds) for Lesioned Paw, mean ± SEM / Paw withdrawal latency, % change compared with vehicle control: thermal stimulation", "data": [{"compound": "CN1CC[C@]23c4c5ccc(O)c4O[C@H]2[C@@H](O)C=C[C@H]3[C@H]1C5", "note": "[Morphine]", "values": [{"measurement": "Paw Withdrawal Latent (seconds) for Lesioned Paw, mean ± SEM", "setting": "128 mg/kg p.o., at 30 min", "result": "23.5 ± 6.4", "unit": "s"}, {"measurement": "Paw withdrawal latency, % change compared with vehicle control", "setting": "128 mg/kg p.o., at 30 min", "result": "+104%"}, {"measurement": "Paw Withdrawal Latent (seconds) for Lesioned Paw, mean ± SEM", "setting": "128 mg/kg p.o., at 1 h", "result": "40.5 ± 3.0", "unit": "s"}, {"measurement": "Paw withdrawal latency, % change compared with vehicle control", "setting": "128 mg/kg p.o., at 1 h", "result": "+185%"}, {"measurement": "Paw Withdrawal Latent (seconds) for Lesioned Paw, mean ± SEM", "setting": "128 mg/kg p.o., at 2 h", "result": "16.7 ± 6.0", "unit": "s"}, {"measurement": "Paw withdrawal latency, % change compared with vehicle control", "setting": "128 mg/kg p.o., at 2 h", "result": "−7", "unit": "%"}, {"measurement": "Paw Withdrawal Latent (seconds) for Lesioned Paw, mean ± SEM", "setting": "128 mg/kg p.o., at 4 h", "result": "21.7 ± 5.7", "unit": "s"}, {"measurement": "Paw withdrawal latency, % change compared with vehicle control", "setting": "128 mg/kg p.o., at 4 h", "result": "+10%"}]}, {"compound": "CN1c2ccccc2C(NCCCCCCC(=O)O)c2ccc(Cl)cc2S1(=O)=O", "note": "(stereo not drawn) [Tianeptine, 7-[(3-chloro-6,11-dihydro-6-methyl-dibenzo[c,f][1,2]thiazepin-11-yl)amino]heptanoic acid S,S-dioxide]", "values": [{"measurement": "Paw Withdrawal Latent (seconds) for Lesioned Paw, mean ± SEM", "setting": "3 mg/kg p.o., at 30 min", "result": "12.7 ± 4.9", "unit": "s"}, {"measurement": "Paw withdrawal latency, % change compared with vehicle control", "setting": "3 mg/kg p.o., at 30 min", "result": "+10%"}, {"measurement": "Paw Withdrawal Latent (seconds) for Lesioned Paw, mean ± SEM", "setting": "3 mg/kg p.o., at 1 h", "result": "20.3 ± 5.3", "unit": "s"}, {"measurement": "Paw withdrawal latency, % change compared with vehicle control", "setting": "3 mg/kg p.o., at 1 h", "result": "+43%"}, {"measurement": "Paw Withdrawal Latent (seconds) for Lesioned Paw, mean ± SEM", "setting": "3 mg/kg p.o., at 2 h", "result": "20.6 ± 6.3", "unit": "s"}, {"measurement": "Paw withdrawal latency, % change compared with vehicle control", "setting": "3 mg/kg p.o., at 2 h", "result": "+15%"}, {"measurement": "Paw Withdrawal Latent (seconds) for Lesioned Paw, mean ± SEM", "setting": "3 mg/kg p.o., at 4 h", "result": "13.8 ± 4.4", "unit": "s"}, {"measurement": "Paw withdrawal latency, % change compared with vehicle control", "setting": "3 mg/kg p.o., at 4 h", "result": "−30", "unit": "%"}, {"measurement": "Paw Withdrawal Latent (seconds) for Lesioned Paw, mean ± SEM", "setting": "10 mg/kg p.o., at 30 min", "result": "19.2 ± 6.0", "unit": "s"}, {"measurement": "Paw withdrawal latency, % change compared with vehicle control", "setting": "10 mg/kg p.o., at 30 min", "result": "+67%"}, {"measurement": "Paw Withdrawal Latent (seconds) for Lesioned Paw, mean ± SEM", "setting": "10 mg/kg p.o., at 1 h", "result": "15.1 ± 4.5", "unit": "s"}, {"measurement": "Paw withdrawal latency, % change compared with vehicle control", "setting": "10 mg/kg p.o., at 1 h", "result": "+6%"}, {"measurement": "Paw Withdrawal Latent (seconds) for Lesioned Paw, mean ± SEM", "setting": "10 mg/kg p.o., at 2 h", "result": "16.1 ± 5.1", "unit": "s"}, {"measurement": "Paw withdrawal latency, % change compared with vehicle control", "setting": "10 mg/kg p.o., at 2 h", "result": "−10", "unit": "%"}, {"measurement": "Paw Withdrawal Latent (seconds) for Lesioned Paw, mean ± SEM", "setting": "10 mg/kg p.o., at 4 h", "result": "26.1 ± 5.4", "unit": "s"}, {"measurement": "Paw withdrawal latency, % change compared with vehicle control", "setting": "10 mg/kg p.o., at 4 h", "result": "+32%"}, {"measurement": "Paw Withdrawal Latent (seconds) for Lesioned Paw, mean ± SEM", "setting": "30 mg/kg p.o., at 30 min", "result": "33.3 ± 5.5", "unit": "s"}, {"measurement": "Paw withdrawal latency, % change compared with vehicle control", "setting": "30 mg/kg p.o., at 30 min", "result": "+190%"}, {"measurement": "Paw Withdrawal Latent (seconds) for Lesioned Paw, mean ± SEM", "setting": "30 mg/kg p.o., at 1 h", "result": "29.0 ± 7.3", "unit": "s"}, {"measurement": "Paw withdrawal latency, % change compared with vehicle control", "setting": "30 mg/kg p.o., at 1 h", "result": "+104%"}, {"measurement": "Paw Withdrawal Latent (seconds) for Lesioned Paw, mean ± SEM", "setting": "30 mg/kg p.o., at 2 h", "result": "16.9 ± 5.0", "unit": "s"}, {"measurement": "Paw withdrawal latency, % change compared with vehicle control", "setting": "30 mg/kg p.o., at 2 h", "result": "−6", "unit": "%"}, {"measurement": "Paw Withdrawal Latent (seconds) for Lesioned Paw, mean ± SEM", "setting": "30 mg/kg p.o., at 4 h", "result": "19.3 ± 5.8", "unit": "s"}, {"measurement": "Paw withdrawal latency, % change compared with vehicle control", "setting": "30 mg/kg p.o., at 4 h", "result": "−2", "unit": "%"}, {"measurement": "paw withdrawal latency after thermal stimulation in the lesioned paw (result in words)", "setting": "30 mg/kg, at 30 minutes", "result": "significant increase"}]}]}
